Active and inactive are the calls of the source.
How the values were obtained:
Format in all cases: functional, cell-based
[1] = tested on: Splenocyte; assay: Inhibition of IL-4 secretion in ConA-activated Balb/C mouse splenocytes at 100 ng/mL after 1 day by ELISA
[2] = tested on: Peritoneal macrophage cell; assay: Increase in IL-12 production in LPS-activated mouse peritoneal macrophages at 100 ng/mL after 1 day by ELISA
[3] = tested on: Peritoneal macrophage cell; assay: Inhibition of NO production in LPS-activated mouse peritoneal macrophages at 100 ng/mL after 1 day by ELISA
[4] = tested on: Splenocyte; assay: Inhibition of IL-6 secretion in ConA-activated Balb/C mouse splenocytes at 100 ng/mL after 1 day by ELISA
[5] = tested on: Splenocyte; assay: Stimulation of IL-2 secretion in ConA-activated Balb/C mouse splenocytes at 100 ng/mL after 1 day by ELISA

CC(=O)/C=C/C=C(\C)[C@H]1CC[C@]2(C)[C@@H]1[C@H](O)C[C@@H]1[C@@]3(C)CC[C@H](O)C(C)(C)[C@@H]3[C@@H](O)C[C@]12C
active: inhibition [1] | Activity [2] | inhibition [3] | inhibition [4] | Activity [5]

CC(C)=C[C@H]1C[C@](C)(O[C@@H]2O[C@H](CO)[C@@H](O)[C@H](O)[C@H]2O)[C@H]2CC[C@]3(C)[C@@H]2[C@@H](C[C@@H]2[C@@]4(C)CC[C@H](O)C(C)(C)[C@@H]4CC[C@]23C)O1
active: inhibition [1] | Activity [2] | inhibition [3] | inhibition [4] | Activity [5]

CC(C)=CCC[C@](C)(O)[C@H]1CC[C@]2(C)[C@@H]1[C@H](O)C[C@@H]1[C@@]3(C)CC[C@H](O)C(C)(C)[C@@H]3[C@@H](O[C@@H]3O[C@H](CO)[C@@H](O)[C@H](O)[C@H]3O[C@H]3O[C@@H](C)[C@H](O)[C@@H](O)[C@H]3O)C[C@]12C
active: inhibition [1] | Activity [2] | inhibition [4] | Activity [5]

From ChEMBL document CHEMBL3098063, “Dammarane triterpenes from the leaves of Panax ginseng enhance cellular immunity” (Bioorg Med Chem, 2014)
